Experimental data from patent US20260098053A1, “COMPOSITIONS AND METHODS FOR TREATING CNS DISORDERS” (SAGE THERAPEUTICS, INC., priority 2019, published 2026).
pIC50: −log10 of the molar value.

Target: [35S]-TBPS binding, rat brain cortical membranes
Test: Steroid inhibition of [35S]-TBPS binding
Details: Table 4, 3 nM [35S]-TBPS, in the presence of 5 mM GABA, read-out: TBPS IC50
Outline: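 Washed P2 cortical membranes from Sprague-Dawley rats, in 200 mM NaCl/50 mM Na-K phosphate pH 7.4, incubated 90 min at room temp with 3 nM [35S]-TBPS, […] GABA and test drug (0.5% DMSO final). Nonspecific binding defined with […] unlabeled TBPS; filtration and scintillation counting. IC50 and Imax from non-linear curve fits, means±SEM of experiments.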

With `Cc1nnn(CC(=O)[C@@H]2CCCC[C@H]3[C@@H]4CC[C@@H]5C[C@](C)(O)CCC[C@]5(C)[C@H]4CC[C@]23C)n1` [Example 64] as the compound, how does the pIC50 read?
The pIC50 was 6.00 to 7.00.

`Cc1nnnn1CC(=O)[C@@H]1CCCC[C@H]2[C@@H]3CC[C@@H]4C[C@](C)(O)CCC[C@]4(C)[C@H]3CC[C@]12C` [Example 65, 1-((1R,5aS,5bR,7aR,9R,12aS,12bS,14aS)-9-hydroxy-9,12a,14a-trimethylicosahydrodicyclohepta[a,f]naphthalen-1-yl)-2-(5-methyl-1H-tetrazol-1-yl)ethanone] was tested. Which pIC50 did it give?
Its pIC50 is under 6.00.

Same assay, conditions: Table 5, 3 nM [35S]-TBPS, in the presence of 5 mM GABA, read-out: TBPS IC50

How did the pIC50 turn out when `CC(=O)[C@H]1CC[C@H]2[C@@H]3CC[C@@H]4C[C@](C)(O)CC[C@@H]4[C@H]3CC[C@@H]21` [Example 66] was run?
The pIC50 was over 7.00.

`CC(=O)[C@@H]1CC[C@H]2[C@@H]3CC[C@@H]4C[C@](C)(O)CC[C@@H]4[C@H]3CC[C@@H]21` [Example 67, 1-((3R,5R,8R,9R,10S,13S,14S,17R)-3-hydroxy-3-methylhexadecahydro-1H-cyclopenta[a]phenanthren-17-yl)ethan-1-one] was tested. Which pIC50 did it give?
The pIC50 was under 6.00.

How did the pIC50 turn out when `C[C@@]1(O)CC[C@H]2[C@H](CC[C@@H]3[C@@H]2CC[C@H]2[C@H]3CC[C@@H]2C(=O)Cn2cc(C#N)cn2)C1` [Example 68, 1-(2-((3R,5R,8R,9R,10S,13S,14S,17S)-3-hydroxy-3-methylhexadecahydro-1H-cyclopenta[a]phenanthren-17-yl)-2-oxoethyl)-1H-pyrazole-4-carbonitrile] was run?
Its pIC50 is over 7.00.

`Cc1nnn(CC(=O)[C@H]2CC[C@H]3[C@@H]4CC[C@@H]5C[C@](C)(O)CC[C@@H]5[C@H]4CC[C@@H]32)n1` [Example 69, 1-((3R,5R,8R,9R,10S,13S,14S,17S)-3-hydroxy-3-methylhexadecahydro-1H-cyclopenta[a]phenanthren-17-yl)-2-(5-methyl-2H-tetrazol-2-yl)ethan-1-one] was tested. Which pIC50 did it give?
Its pIC50 is over 7.00.

`Cc1nnnn1CC(=O)[C@H]1CC[C@H]2[C@@H]3CC[C@@H]4C[C@](C)(O)CC[C@@H]4[C@H]3CC[C@@H]21` [Example 70, 1-((3R,5R,8R,9R,10S,13S,14S,17S)-3-hydroxy-3-methylhexadecahydro-1H-cyclopenta[a]phenanthren-17-yl)-2-(5-methyl-1H-tetrazol-1-yl)ethan-1-one] was tested. Which pIC50 did it give?
The pIC50 was over 7.00.

How did the pIC50 turn out when `CC(=O)[C@H]1CC[C@H]2[C@@H]3CC[C@H]4C[C@](C)(O)CC[C@@H]4[C@H]3CC[C@@H]21` [Example 72, 1-((3R,5S,8R,9R,10S,13S,14S,17S)-3-hydroxy-3-methylhexadecahydro-1H-cyclopenta[a]phenanthren-17-yl)ethanone] was run?
The pIC50 was under 6.00.

With `Cc1nnn(CC(=O)[C@H]2CC[C@H]3[C@@H]4CC[C@H]5C[C@](C)(O)CC[C@@H]5[C@H]4CC[C@@H]32)n1` [Example 73, 1-((3R,5S,8R,9R,10S,13S,14S,17S)-3-hydroxy-3-methylhexadecahydro-1H-cyclopenta[a]phenanthren-17-yl)-2-(5-methyl-2H-tetrazol-2-yl)ethanone] as the compound, how does the pIC50 read?
The pIC50 was under 6.00.

`CC(=O)[C@@H]1CCC[C@H]2[C@@H]3CC[C@@H]4C[C@](C)(O)CC[C@@H]4[C@H]3CC[C@@H]21` [Example 75, 1-((1R,4aS,4bR,6aR,8R,10aS,10bR,12aS)-8-hydroxy-8-methyloctadecahydrochrysen-1-yl)-ethanone] was tested. Which pIC50 did it give?
Its pIC50 is under 6.00.

How did the pIC50 turn out when `Cc1nnnn1CC(=O)[C@H]1CC[C@H]2[C@@H]3CC[C@H]4C[C@](C)(O)CC[C@@H]4[C@H]3CC[C@@H]21` [Example 76, 1-((3R,5S,8R,9R,10S,13S,14S,17S)-3-hydroxy-3-methylhexadecahydro-1H-cyclopenta[a]phenanthren-17-yl)-2-(5-methyl-1H-tetrazol-1-yl)ethanone] was run?
Its pIC50 is under 6.00.

`CC(=O)[C@H]1CCC[C@H]2[C@@H]3CC[C@@H]4C[C@](C)(O)CC[C@@H]4[C@H]3CC[C@@H]21` [Example 77, 1-((1S,4aS,4bR,6aR,8R,10aS,10bR,12aS)-8-hydroxy-8-methyloctadecahydrochrysen-1-yl)-ethanone] was tested. Which pIC50 did it give?
The pIC50 was over 7.00.

`C[C@@]1(O)CC[C@H]2[C@H](CC[C@@H]3[C@@H]2CC[C@H]2[C@H]3CCC[C@@H]2C(=O)Cn2cc(C#N)cn2)C1` [Example 78, 1-(2-((1S,4aS,4bR,6aR,8R,10aS,10bR,12aS)-8-hydroxy-8-methyloctadecahydrochrysen-1-yl)-2-oxoethyl)-1H-pyrazole-4-carbonitrile] was tested. Which pIC50 did it give?
Its pIC50 is over 7.00.

`CC(=O)[C@H]1CCC[C@H]2[C@@H]3CC[C@H]4C[C@](C)(O)CC[C@@H]4[C@H]3CC[C@@H]21` [Example 79, 1-((1S,4aS,4bR,6aS,8R,10aS,10bR,12aS)-8-hydroxy-8-methyloctadecahydrochrysen-1-yl)-ethanone] was tested. Which pIC50 did it give?
Its pIC50 is 6.00 to 7.00.

`Cc1nnn(CC(=O)[C@H]2CCC[C@H]3[C@@H]4CC[C@H]5C[C@](C)(O)CC[C@@H]5[C@H]4CC[C@@H]32)n1` [Example 80, 1-((1S,4aS,4bR,6aS,8R,10aS,10bR,12aS)-8-hydroxy-8-methyloctadecahydrochrysen-1-yl)-2-(5-methyl-2H-tetrazol-2-yl)ethanone] was tested. Which pIC50 did it give?
The pIC50 was over 7.00.

How did the pIC50 turn out when `Cc1nnnn1CC(=O)[C@H]1CCC[C@H]2[C@@H]3CC[C@H]4C[C@](C)(O)CC[C@@H]4[C@H]3CC[C@@H]21` [Example 81, 1-((1S,4aS,4bR,6aS,8R,10aS,10bR,12aS)-8-hydroxy-8-methyloctadecahydrochrysen-1-yl)-2-(5-methyl-1H-tetrazol-1-yl)ethanone] was run?
Its pIC50 is over 7.00.

How did the pIC50 turn out when `CC[C@]12CC[C@@](C)(O)C[C@H]1CC[C@H]1[C@@H]3CC[C@H](C(=O)Cn4nnnc4C)[C@H]3CC[C@@H]12` [Example 82, 1-((3R,5R,8S,9S,10S,13S,14S,17S)-10-ethyl-3-hydroxy-3-methylhexadecahydro-1H-cyclopenta[a]phenanthren-17-yl)-2-(5-methyl-1H-tetrazol-1-yl)ethanone] was run?
The pIC50 was over 7.00.

How did the pIC50 turn out when `CC[C@]12CC[C@@](C)(O)C[C@H]1CC[C@H]1[C@@H]3CC[C@H](C(=O)Cn4nnc(C)n4)[C@H]3CC[C@@H]12` [Example 83, 1-((3R,5R,8S,9S,10S,13S,14S,17S)-10-ethyl-3-hydroxy-3-methylhexadecahydro-1H-cyclopenta[a]phenanthren-17-yl)-2-(5-methyl-2H-tetrazol-2-yl)ethanone] was run?
The pIC50 was over 7.00.

With `C[C@@]1(O)CC[C@H]2[C@H](CC[C@H]3[C@@H]4CC[C@H](C(=O)Cn5cc(C#N)cn5)[C@@H]4CC[C@@H]32)C1` [Example 84, 1-(2-((3R,5R,8R,9R,10S,13R,14S,17S)-3-hydroxy-3-methylhexadecahydro-1H-cyclopenta[a]phenanthren-17-yl)-2-oxoethyl)-1H-pyrazole-4-carbonitrile] as the compound, how does the pIC50 read?
The pIC50 was 6.00 to 7.00.
